One may read the mass density as mass per unit of volume.

Numbers after ± are expanded uncertainties.

This is an account of results in the NIST ThermoML archive (doi:10.1016/j.fluid.2010.06.017).

A short description of the data set: wn = mass fraction of the nth substance listed. The note with it: 373.15 K; 34470 kPa; Liquid; Vibrating tube method; w1 = 0.4623.

In the case of `FC(F)(F)C1(F)C(F)(F)C(F)(F)C(F)(F)C(F)(C(F)(F)F)C1(F)F` (stereo unspecified) + C, the mass density was found to be 1399 ± 17 kg/m3.
